Patent US20050119301A1, “Treatment of restenosis” (priority 2001, published 2005)

Key:
LDL = LDL antioxidation test (CuCl2-initiated LDL oxidation, lag time); type: biochemical, human; conditions: 10 mM; Promensil 5 mg/ml
Method: The LDL antioxidation test measures the ability of a compound to directly scavenge free radicals or to chelate transition metals. Thus in this series of experiments, the isoflavones and their derivatives were tested for their ability to act as free radical scavengers.
Fresh whole blood was obtained by venipuncture from healthy human volunteers under 25 years of age and supplemented immediately with EDTA (91 mg/ml) and BHT (4.4 mg/ml). LDL was prepared by step-wise ultracentrifugation within a density gradient of 1.02-1.05 g/cm^3. EDTA and BHT were present throughout all the steps of the isolation. The EDTA/BHT containing stock solution (15-30 mg LDL/ml) was stored in the dark in a nitrogen atmosphere until use, but never longer than two weeks.
Before oxidation experiments, the LDL stock solution was dialyzed in the 100-fold volume of 0.01 M phosphate buffer pH 7.4, 0.16 M NaCl, 0.1 mg/ml chloroamphenicol, which was made oxygen-free by vacuum degassing following by purging with nitrogen. The buffer was changed four times. This EDTA- and BHT-free LDL stock solution was used for all oxidation studies. The stock solution was stored not longer than 24 hr at 4° C. For performing the oxidation experiments, the EDTA- and BHT-free LDL stock solution was diluted with oxygen-saturated 0.01 M phosphate buffer pH 7.4, 0.16 M NaCl and the oxidation was initiated by the addition of a freshly prepared aqueous CuCl2 solution. The final conditions were in all experiments: room temperature, 0.25 mg LDL/ml and […] (see Esterbauer et. al., 1989)
The antioxidant activities of the following compounds were tested: daidzein ([…]), genistein ([…]), glycitein ([…]), biochanin ([…]), formononetin ([…]), Promensil™ (Novogen) (2.5 mg/ml, 5 mg/ml), Cpd. 5 (10 mM), Cpd. 7 (10 mM), Cpd. 8 (10 mM), Cpd. 12 (10 mM), Cpd. 4 (10 mM) and Cpd. 6 (10 mM). In each experiment, controls were used to compare the relative effectiveness of the Novogen isoflavone derivatives to common and well-known antioxidants such as ascorbate (2.5 mM; Vitamin C).

human LDL = assay: Prevention of tocopherol-mediated peroxidation (anti-TMP test); type: biochemical; conditions: 10 mM
Method: The test indirectly assesses the ability of a compound to synergise with a-tocopherol in human LDL undergoing mild and chemically controlled oxidation. Oxidation is measured by the accumulation of cholesterol ester hydroperoxides at a time point corresponding to 20% consumption of endogenous a-tocopherol.
Briefly, ascorbate and ubiquinol-10-free LDL (1 mM in apoB) was supplemented with an aliquot of a stock solution of the compound to be tested. The mixture was incubated at 37° C. for 10 min and subsequently oxidized at 37° C. with a low flux of water-soluble ROO generated from AAPH (4 mM). The time-dependent consumption of LDL a-tocopherol and accumulation of cholesteryllinolate hydroperoxide (Ch18:2-OOH) were monitored by HPLC with electrochemical and post-column chemiluminescence detection, respectively. The effectiveness of an antioxidant, assigned as its anti-TMP index (redox index), was defined as the relative amounts of Ch18:2-OOH formed with versus without the added antioxidant measured after 20% consumption of the endogenous a-tocopherol in the control sample (ie. in the absence in the antioxidant). […] Butylated hydroxytoluene (BHT, 10 mM) was used as a positive control.

[1] = Peroxyl radical scavenging, AAPH-induced oxidation of linoleate; type: biochemical; parameters: dose or concentration left out as unconfirmed
Method: Peroxyl radicals are natural side-products of a number of enzymes, including lipoxygenases and cyclo-oxygenase. Peroxyl radicals were generated by the thermo-labile azo-initiator AAPH. AAPH-induced oxidation of linoleate was performed as described previously (Pryor et al., 1993), except that a lower linoleate concentration was used and SDS was omitted. An aliquot of a linoleate stock solution was added to PBS at 37° C. to give a final concentration of […]. Oxidation was initiated by the addition of AAPH (87.5 mM final concentration) in the absence and presence of either 10 mM of Cpd. 7, Cpd. 8 or Cpd. 12 or 500 mM ascorbate (positive control). Formation of linoleate hydroperoxide was monitored by UV 234 nm using a Perkin Elmer's UV/Vis Lambda 40 spectrophotometer. The test was performed twice as single analysis. An appropriate concentration of alcohol (ethanol and isopropanol; 0.13%-0.2% v/v) was included in the respective control samples.

[2] = test system: horseradish peroxidase (HRP) plus hydrogen peroxide (H2O2); assay: Peroxidase-induced (HRP/H2O2) oxidation of linoleate; type: biochemical, horse radish; parameters: dose or concentration left out as unconfirmed
Excerpt: The test is similar to the peroxyl scavenging described in section 4.5 above, except that horseradish peroxidase (HRP) plus hydrogen peroxide (H2O2), were used instead of the peroxyl radical generator. Increased level of heme is considered as a potential risk factor for atherosclerosis, and heme-containing proteins may be involved in the oxidative modification of LDL. In the presence of H2O2, heme proteins give rise to a powerful oxidant (referred to as compound I) that can oxidatively modify lipids, including those in LDL. We therefore tested the ability of the isoflavone to inhibit such lipid oxidation using horse radish peroxidase as the model heme protein. HRP/H2O2-induced oxidation of linoleate was as described principally by Witting et al (1997) by replacing LDL with linoleate. Linoleate stock was added to PBS at 37° C. to give a final concentration of 300 mM and oxidized by HRP (40 U/mL)/H2O2 (2 mM) in the absence and presence of either 10 mM of Cpd. 7, Cpd. 8 or Cpd. 12, or 25 mM BHT (positive control). Formation of linoleate hydroperoxide was monitored by UV 234 nm using the Perkin Elmer's UV/Vis Lambda 40 spectrophotometer. The test was performed twice as single analysis. An appropriate concentration of alcohol (ethanol and isopropanol; 0.13% -0.2% v/v) was included in the respective control samples.

Structure (SMILES) | ability to scavenge free radicals (in words) (LDL) | LDL protective action in the presence of Vitamin E (in words) (human LDL) | inhibition of AAPH-induced oxidation of linoleic acid, 234 nm absorbency (in words) [1] | inhibition of linoleic acid oxidation by HRP/H2O2 compound I (in words) [2]
Oc1ccc(C2COc3cc(O)ccc3C2O)cc1 (stereo not drawn) [Cpd. 8] | very active scavengers | low levels of activity | As for peroxyl radicals, neither Cpd. 7 nor Cpd. 8 were able to inhibit | able to inhibit linoleic acid oxidation by compound I as effectively as 25 mM BHT
Oc1ccc(C2COc3cc(O)ccc3C2O)cc1 (stereo not drawn) [Cpd. 7] | significantly less active than Cpd. 8 and Cpd. 12 but still almost as active as ascorbate | low levels of activity | As for peroxyl radicals, neither Cpd. 7 nor Cpd. 8 were able to inhibit | able to inhibit linoleic acid oxidation by compound I as effectively as 25 mM BHT
Oc1ccc(C2=Cc3ccc(O)cc3OC2)cc1 [Cpd. 12] | very active scavengers | strong LDL protective action (low redox index) | significantly inhibited the time-dependent increase in 234 nm absorbency | inhibitory activity of Cpd. 7 and Cpd. 8 was greater than of an equimolar amount of Cpd. 12
